Results published in patent publication US9522962B2, “Peptides, conjugates and method for increasing immunogenicity of a vaccine” (Academisch Ziekenhuis Leiden h.o.d.n. LUMC, priority 2010, dated 2016).
Where two headings read alike, the source gives them in different places. Square brackets hold non-standard residues; d marks the D form. Ends that are not written are not given here. * marks the point of attachment. Biotin = O=C1N[C@H]2[C@H](CS[C@H]2CCCCC(=O)*)N1; code O = not defined here; Ahx = NCCCCCC(=O)O

What was measured:
[1] = tested on: antibodies in TETAQUIN® (anti-TTd antibodies); format: binding, human
[2] = tested on: antibodies in individual human sera (e.g. serum 034960); experiment: Tettox ELISA of biotinylated peptides on individual human sera; format: binding; conditions: human serum 034960 diluted 100x
Description: a 96-wells plate (preferably from Euro-Diagnostica, Arnhem, The Netherlands) is coated with streptavidin. The streptavidin coated 96 wells plate is blocked with PBS containing 5% BSA (200 μl/well, 1 h, room temperature). Subsequently, the plate is washed three times with PBS containing 0.05% TWEEN20® (polysorbate 20). A biotinylated peptide is coated by 1 h incubation at room temperature with 100 μl/well of a 2 μg/ml solution of the biotinylated peptide in PBS containing 1% BSA. The plate is washed three times with PBS containing 0.05% TWEEN20® (polysorbate 20) followed by incubation for 1 h at room temperature with 100 μl serum from […] a human subject as defined above (preferably having a high titer of anti-TTd antibodies) that had been diluted at least 100, 200, 400, 500 or 1000 times and preferably not more than 100,000, 10,000, 7,500, 5,000 or 2,500 times with PBS containing 1% BSA. Then the plate is washed three times with PBS containing 0.05% TWEEN20®(polysorbate 20). Each well is incubated for 1 h at room temperature with a HRP-conjugated IgG antibody (mouse anti-human IgG-HRP monoclonal, clone G18-145, cat no 555788, Becton Dickinson, 100 μl/well of a 1000× dilution in PBS containing 0.05% TWEEN20® (polysorbate 20)) after which the plate is washed three times with PBS containing 0.05% TWEEN20® (polysorbate 20). Development is performed with 2,2′-azino-di-(3-ethylbenzthiazoline sulfonic acid), ABTS+H2O2 1/1000, 100 μl/well. Optical density is measured at 415 nm with a BIO-RAD, model 680, microplate reader. In each plate, preferably a negative contol is included, more preferably at least in triplicate. A preferred negative contol is serum from a human subject without detectable anti-TTd antibodies. Another preferred negative control is a solution of BSA. A peptide according to (ii) above is a peptide according to the invention if it is bound by antibodies in at least 40, 45, 50, 55, 60, 65, 70, 75, 80, 85, 87, 90, 91, 92, 93, 94, 95, 96, 97, 98, 99% most preferably 100% of the tested human serum samples. A peptide is considered to be bound by antibodies in a serum sample if the determined optical density for that particular serum sample is at least 2.0, more preferably 2.5, 3.0, 3.5 or more times higher as compared to the optical density that is determined for the negative control.
Streptavidin coated 96 wells plates (Euro-Diagnostica) were blocked with PBS containing 5% BSA (200 μl/well, 1 h, room temperature). Plates were washed three times with PBS containing 0.05% TWEEN20® (polysorbate 20). Coating of the biotinylated peptides was performed by 1 h incubation at room temperature with 100 μl/well of a 2 μg/ml solution of the biotinylated peptide in PBS containing 1% BSA. Plates were washed three times with PBS containing 0.05% TWEEN20®. Wells were incubated for 1 h at room temperature with either 100 μl TETAQUIN® […] that had been diluted 800× with PBS containing 1% BSA or with 100 μl human serum that had been diluted 100× with PBS containing 1% BSA. Plates were washed three times with PBS containing 0.05% TWEEN20® (polysorbate 20). Each well was incubated for 1 h at room temperature with a HRP-conjugated IgG antibody (mouse anti-human IgG-HRP monoclonal, clone G18-145, cat no 555788, Becton Dickinson, 100 μl/well of a 1000× dilution in PBS containing 0.05% TWEEN20® (polysorbate 20)). Plates were washed three times with PBS containing 0.05% TWEEN20® (polysorbate 20). Development was performed with 2,2′-azino-di-(3-ethylbenzthiazoline sulfonic acid), ABTS+H2O2 1/1000, 100 μl/well. Optical density was measured at 415 nm with a BIO-RAD, model 680, microplate reader.
Thereafter, the inventors tested these 7 peptides on individual sera, because an epitope is needed to which every person makes antibodies.

[3] = Table 6, conservative substitutions scan of […]
[4] = Table 2, length variants of peptide β-32, section 'With linker', […] diluted 800x, OD at 415 nm
[5] = Table 2, length variants of peptide β-32, section 'Without linker' (sequence listed without Z O), […]

Substance	ELISA OD TETAQUIN [1, 3]	ELISA OD SERUM 034960 [2, 3]	ELISA OD TETAQUIN ([1]; Table 5, Ala scan of […])	ELISA OD SERUM 034960 ([2]; Table 5, Ala scan of […])	also measured
F L G I T E L K K L E S K I N K V F Z O (FLGITELKKLESKINKVF[Ahx]K(Biotin)) [0942-29]	1.19	1.29	–	–	–
F I G I T A L K K L E S K I N K V F Z O [0942-15]	–	–	1.24	1.28	–
F I G I T E L K K L E S R I N K V F Z O (FIGITELKKLESRINKVF[Ahx]K(Biotin)) [0942-40]	1.19	1.27	–	–	–
F I G I T E L K K A E S K I N K V F Z O [0942-19]	–	–	0.70	0.71	–
F I G I T E L K K L E S K I N K V A Z O (FIGITELKKLESKINKVA[Ahx]K; not fully specified (residue 20)) [0942-27]	–	–	1.26	1.20	–
F I G I T E L A K L E S K I N K V F Z O [0942-17]	–	–	0.62	0.65	–
F I G I T E L K K L E S A I N K V F Z O (FIGITELKKLESAINKVF[Ahx]K; not fully specified (residue 20)) [0942-22]	–	–	1.10	1.27	–
F I G I A E L K K L E S K I N K V F Z O [0942-14]	–	–	0.38	0.16	–
F I A I T E L K K L E S K I N K V F Z O [0942-12]	–	–	0.65	0.23	–
F I G I T E L R K L E S K I N K V F Z O (FIGITELRKLESKINKVF[Ahx]K(Biotin)) [0942-35]	1.02	0.90	–	–	–
F I G I T E L K K L E S K I N K L F Z O (FIGITELKKLESKINKLF[Ahx]K; not fully specified (residue 20)) [0942-44]	1.30	1.47	–	–	–
F I G I T E L K K L E T K I N K V F Z O (FIGITELKKLETKINKVF[Ahx]K(Biotin)) [0942-39]	0.88	1.04	–	–	–
F I G I T E L K K L A S K I N K V F Z O (FIGITELKKLASKINKVF[Ahx]K; not fully specified (residue 20)) [0942-20]	–	–	0.85	0.91	–
F I G I T E L K R L E S K I N K V F Z O (FIGITELKRLESKINKVF[Ahx]K(Biotin)) [0942-36]	1.12	1.23	–	–	–
F I G I T E L K K L D S K I N K V F Z O (FIGITELKKLDSKINKVF[Ahx]K; not fully specified (residue 20)) [0942-38]	0.41	0.37	–	–	–
F I S I T E L K K L E S K I N K V F Z O (FISITELKKLESKINKVF[Ahx]K(Biotin)) [0942-30]	1.10	1.32	–	–	–
F I G I T E L K K L E S K I N K V Y Z O (FIGITELKKLESKINKVY[Ahx]K; not fully specified (residue 20); also: O: biotin modification, exact residue form not clear) [0942-45]	1.11	1.23	–	–	–
F I G I S E L K K L E S K I N K V F Z O [0942-32]	0.83	0.70	–	–	–
F I G I T E L K K L E S K I N A V F Z O (FIGITELKKLESKINAVF[Ahx]K; not fully specified (residue 20)) [0942-25]	–	–	1.30	1.28	–

Substance	ELISA OD TETAQUIN [1, 3]	ELISA OD SERUM 034960 [2, 3]	ELISA OD TETAQUIN ([1]; Table 5, Ala scan of […])	ELISA OD SERUM 034960 ([2]; Table 5, Ala scan of […])	also measured
F I G I T E A K K L E S K I N K V F Z O [0942-16]	–	–	0.90	0.91	–
F A G I T E L K K L E S K I N K V F Z O [0942-11]	–	–	1.04	1.18	–
A I G I T E L K K L E S K I N K V F Z O [0942-10]	–	–	1.12	1.29	–
Y I G I T E L K K L E S K I N K V F Z O (YIGITELKKLESKINKVF[Ahx]K(Biotin)) [0942-28]	1.23	1.30	–	–	–
F I G I T E L K K I E S K I N K V F Z O [0942-37]	1.11	1.14	–	–	–
F I G I T E L K K L E S K I N R V F Z O (FIGITELKKLESKINRVF[Ahx]K(Biotin)) [0942-43]	1.26	1.31	–	–	–
F I G A T E L K K L E S K I N K V F Z O [0942-13]	–	–	0.30	0.18	–
F I G I T E L K K L E S K I A K V F Z O (FIGITELKKLESKIAKVF[Ahx]K; not fully specified (residue 20)) [0942-24]	–	–	1.37	1.29	–
F I G I T E L K K L E S K A N K V F Z O (FIGITELKKLESKANKVF[Ahx]K; not fully specified (residue 20)) [0942-23]	–	–	0.88	1.08	–
F I G I T E L K K L E S K L N K V F Z O (FIGITELKKLESKLNKVF[Ahx]K(Biotin)) [0942-41]	1.11	1.32	–	–	–
F I G I T E L K K L E S K I N K A F Z O (FIGITELKKLESKINKAF[Ahx]K; not fully specified (residue 20)) [0942-26]	–	–	1.24	1.39	–
F I G L T E L K K L E S K I N K V F Z O (FIGLTELKKLESKINKVF[Ahx]K(Biotin)) [0942-31]	0.97	1.19	–	–	–
F I G I T E L K K L E A K I N K V F Z O (FIGITELKKLEAKINKVF[Ahx]K; not fully specified (residue 20)) [0942-21]	–	–	1.27	1.48	–
Q Y I K A N S K F I G I T E Z O (QYIKANSKFIGITE-{Ahx-code O}; reading uncertain) [P15]	–	–	–	–	OD [1, 4]: 0.25; OD [1, 5]: 0.25
QYIKANSKFIGITELKKLES Z O (QYIKANSKFIGITELKKLES-{Ahx-code O}; reading uncertain) [P3]	–	–	–	–	OD [1, 4]: 1.1; OD [1, 5]: 1.1
F I G I T E L K K L E S K I Z Z O (FIGITELKKLESKI[Ahx][Ahx]K(Biotin))	–	–	–	–	ELISA OD, effect of longer spacer and C- versus N-terminal biotinylation ([1]; Table 4, antibody source not given): 0.79
T E L K K L E S K I Z O (TELKKLESKI-{Ahx-code O}; reading uncertain) [P22]	–	–	–	–	OD [1, 4]: 0.2; OD [1, 5]: 0.2
I K A N S K F I Z O (IKANSKFI-{Ahx-code O}; reading uncertain) [P35]	–	–	–	–	OD [1, 4]: 0.2; OD [1, 5]: 0.2
